The text below walks through data of patent US20110294772A1, “USE OF CYCLOSQUARAMIDE COMPOUNDS AS ANTI-TUMOUR AGENTS” (priority 2008, published 2011).

Data set [1] concerns Hut. The data set can be described thus: cell viability assay. It is filed as cell-based, human. To be noted: Hut T-cell lymphoma, 72 h, with respect to untreated control cells.
For data set [2], the system named is U87. Nature of the data set: cell viability assay. It is filed as cell-based, human. To be noted: U87 glioblastoma, 72 h, with respect to untreated control cells.
Data set [3] has as its system panel of NCl60 cell lines. The data set can be described thus: IC50 in NCI60 panel (overall). It is filed as cell-based. To be noted: Homo sapiens, general order, read-out: antitumor activity (IC50) in general. The protocol:
(§1) On the other hand, the values of IC50 were determined in the panel of NCl60 cell lines for compound 10.
(§2) A total of 2 independent experiments were carried out with assays in triplicate for the compound and cell line. All those assays where an IC50 value was not reached in the highest concentration of 1E-05 M are represented by “>1E-05”. In these cases, the standard deviation cannot be calculated and for that reason it is calculated as “-”.

Data set [4] deals with Karpas-45. Nature of the data set: cell viability assay. It is filed as cell-based, human. To be noted: Karpas-45 T-cell lymphoma, 72 h, with respect to untreated control cells.
Data set [5] relates to panel of 210 kinases representative of the human kinome. The data set can be described thus: in vitro kinase panel. The format is biochemical. The conditions noted are these: 25 kinases selected for IC50, in vitro assays. The protocol:
Specifically, against a panel of 210 kinases representative of the human kinome, the compounds tested inhibited by […] the activity of 25 of them in in Vitro assays (Table 1).
The IC50 was determined for the most sensitive kinases to compound 10, obtaining values for said parameter, largely in the micromolar range. For this purpose, the 25 kinases inhibited more than 80% by the compound in in vitro assays were selected.

The subject of data set [6] is U251. Nature of the data set: cell viability assay. The format is cell-based, human. To be noted: U251 glioblastoma, 72 h, with respect to untreated control cells.
Data set [7] deals with Rec-1. The data set can be described thus: cell viability assay. The format is cell-based, human. The conditions noted are these: Rec-1 B-cell lymphoma (MCL), 48 h, with respect to untreated control cells.
In data set [8] the test system is MCF-7 (Breast). The data set can be described thus: NCI60 panel IC50. The format is cell-based. To be noted: Homo sapiens, MCF7. The method, then:
as §1, §2

Data set [9] concerns HCT-116 (Colon). Nature of the data set: NCI60 panel IC50. The format is cell-based. The conditions noted are these: Homo sapiens. The method, then:
as §1, §2

In data set [10] the test system is T47-D (Breast). Nature of the data set: NCI60 panel IC50. The format is cell-based. The conditions noted are these: Homo sapiens, T47D. The protocol: as §1, §2
Data set [11] has as its system ADR-RE-3 (Breast). Nature of the data set: NCI60 panel IC50. The conditions noted are these: Homo sapiens. The format is cell-based. The protocol: as §1, §2
Data set [12] concerns Hs-578-T (Breast). Nature of the data set: NCI60 panel IC50. The format is cell-based. To be noted: Homo sapiens. The protocol:
as §1, §2

In data set [13] the test system is SF-268 (CNS). Nature of the data set: NCI60 panel IC50. The format is cell-based. To be noted: Homo sapiens, 2 experiments in triplicate. The protocol: as §1, §2
Data set [14] concerns K-562 (Leukaemia). The data set can be described thus: NCI60 panel IC50. The format is cell-based. To be noted: Homo sapiens, K562. The method, then:
as §1, §2

The test system of data set [15] is BT-549 (Breast). Nature of the data set: NCI60 panel IC50. The format is cell-based. To be noted: Homo sapiens. The protocol: as §1, §2
Data set [16] deals with SK-OV-3 (Ovarian). The data set can be described thus: NCI60 panel IC50. The format is cell-based. The conditions noted are these: Homo sapiens. The method, then: as §1, §2
Data set [17] relates to NCI-H23 (Lung). The data set can be described thus: NCI60 panel IC50. The conditions noted are these: Homo sapiens. It is filed as cell-based. The protocol: as §1, §2

As to `CN1CCCNc2c(c(=O)c2=O)NCCCN(C)CCCNc2c(c(=O)c2=O)NCCCN(C)CCCNc2c(c(=O)c2=O)NCCCN(C)CCCNc2c(c(=O)c2=O)NCCCN(C)CCCNc2c(c(=O)c2=O)NCCC1` [Compound 10], the “% Cell viability” value stood at 60% in [1]; 25% in [2]; 13% in [4]; 85% in data set [6]; 44% in data set [7]. Further, the IC50 was 1 to 10 µM in data set [3]; 4.67 µM in [8]; 2.98 µM in data set [9]; 1.89 µM in data set [10]; 1.62 µM in data set [11]; 7.79 µM in [12]. The IC50 in data set [13] worked out at 5.61 µM; in data set [14] it was 4.07 µM; in data set [15], 2.21 µM; in [16] it was 3.1 µM; in [17], 3.02 µM. Besides, the “inhibition of the 25 most sensitive kinases” value in data set [5] is listed as “more than 80%”.

By IC50 is commonly meant the concentration at which inhibition is half-maximal.
